Where two headings read alike, the source gives them in different places.
What was measured:
[1] = tested on: wild-type HCV replicon in Huh7 cells; assay: Cell-based drug susceptibility (replicon) assay, wild-type; conditions: Hepatitis C virus, read-out: Replicon EC50 (nM) WT
Method: (§1) Mutations (R155K, A516T, D168A and D168V) were constructed by site-directed mutagenesis using a Con1 (genotype 1b) luciferase reporter replicon containing the H77 (genotype 1a) NS3 sequence.
(§2) Replicon RNA of each protease variant was introduced into Huh7 cells by electroporation. Replication was then assessed in the presence of increasing concentrations of protease inhibitors by measuring luciferase activity (relative light units) 96 h after electroporation.
(§3) Mutations (R155K, D168A and A156T) were constructed by site-directed mutagenesis using a Con1 (genotype 1b) luciferase reporter replicon containing the H77 (genotype 1a) NS3 sequence.^6 Replicon RNA of each protease variant was introduced into Huh7 cells by electroporation. Replication was then assessed in the presence of increasing concentrations of protease inhibitors by measuring luciferase activity (relative light units) 96 h after electroporation.

[2] = tested on: HCV replicon A156T variant in Huh7 cells; assay: microbe, parasite or virus in culture; type: cell-based, Hepatitis C virus; conditions: for Replicon EC50 (Fold change) A156T: Table 4, relative to WT replicon
Method: as §1, §2, §3

[3] = tested on: HCV replicon D168A variant in Huh7 cells; assay: microbe, parasite or virus in culture; type: cell-based, Hepatitis C virus; conditions: for EC50: Hepatitis C virus; for Replicon EC50 (Fold change) D168A: Table 4, relative to WT replicon
Method: as §1, §2, §3

[4] = tested on: HCV replicon R155K variant in Huh7 cells; assay: microbe, parasite or virus in culture; type: cell-based, Hepatitis C virus; conditions: for EC50: Hepatitis C virus; for Replicon EC50 (Fold change) R155K: Table 4, relative to WT replicon
Method: as §1, §2, §3

[5] = tested on: HCV replicon D168V variant in Huh7 cells; assay: microbe, parasite or virus in culture; type: cell-based, Hepatitis C virus; conditions: for EC50: Hepatitis C virus; for Replicon EC50 (Fold change) D168V: Table 4, relative to WT replicon
Method: as §1
Replicon RNA of each protease variant was introduced into Huh7 cells by electroporation. Replication was then assessed in the presence of increasing concentrations of protease inhibitors by measuring luciferase activity (relative light units) 96 h after electroporation. […]

[6] = target: T1, GT1a D168A NS3/4A protease (UniProt P27958, C1185S/D1194A, species not given); type: biochemical, Hepatitis C virus; conditions: read-out: Ki (nM) GT1a D168A NS3/4A Protease
T1 construct: Ki (nM) GT1a D168A NS3/4A Protease
Method: (§4) For each assay, 2 nM of NS3/4A protease (GT1, D168A and GT3) was pre-incubated at room temperature for 1 h with increasing concentration of inhibitors in assay buffer [50 mM Tris, 5% glycerol, 10 mM DTT, 0.6 mM LDAO, and 4% dimethyl sulfoxide]. Inhibition assays were performed in nonbinding surface 96-well black half-area plates (Corning) in a reaction volume of 60 μt. […] Three independent data sets were collected for each inhibitor with each protease construct.
(§5) For each assay, 2 nM of NS3/4A protease (GT1a and D168A) was pre-incubated at room temperature for 1 h with increasing concentration of inhibitors in assay buffer (50 mM Tris, 5% glycerol, 10 mM DTT, 0.6 mM LDAO, and 4% dimethyl sulfoxide, pH 7.5). Inhibition assays were performed in non-binding surface 96-well black half-area plates (Corning) in a reaction volume of 60 μL. […] Three independent data sets were collected for each inhibitor with each protease construct.
(§6) For each assay, 2 nM of NS3/4A protease (GT1a, R155K and D168A) was pre-incubated at room temperature for 1 h with increasing concentration of inhibitors in assay buffer (50 mM Tris, 5% glycerol, 10 mM DTT, 0.6 mM LDAO, and 4% dimethyl sulfoxide, pH 7.5). Inhibition assays were performed in non-binding surface 96-well black half-area plates (Corning) in a reaction volume of 60 μL. […] Three independent data sets were collected for each inhibitor with each protease construct. […] Gibbs free energy of binding was calculated using the following equation: ΔG=RTlnKi

[7] = target: GT1a D168A NS3/4A protease; type: biochemical, Hepatitis C virus; conditions: Table 3; Ki D168A relative to GT1a WT
Method: as §4, §5, §6

[8] = target: T2, wild-type GT1a NS3/4A protease (UniProt P27958, C1185S, species not given); type: biochemical, Hepatitis C virus; conditions: read-out: Ki (nM) GT1a WT NS3/4A Protease
T2 construct: Ki (nM) GT1a WT NS3/4A Protease
Method: as §4, §5, §6

[9] = Huh-7, read-out: Replicon EC50 (nM) D168A, Table 4
[10] = Huh-7, read-out: Replicon EC50 (nM) R155K, Table 4
[11] = Huh-7, read-out: Replicon EC50 (nM) D168V, Table 4
[12] = Huh-7, 96 h, Table 2, Huh7 cells, luciferase 96 h
[13] = Hepatitis C virus, Huh-7, 96 h, read-out: Replicon EC50 (nM) A156T, Table 2, Huh7 cells, luciferase 96 h
[14] = Hepatitis C virus, Huh-7, read-out: Replicon EC50 (nM) A156T, Table 4
[15] = Huh-7, 96 h, read-out: Replicon EC50 (nM) D168A, Table 2, Huh7 cells, luciferase 96 h
[16] = Huh-7, 96 h, read-out: Replicon EC50 (nM) R155K, Table 2, Huh7 cells, luciferase 96 h
[17] = Huh-7, 96 h, read-out: Replicon EC50 (nM) D168V, Table 2, Huh7 cells, luciferase 96 h

| Compound | EC50 ([1]; Huh-7, Table 4) [nM] | EC50 [3, 9] [nM] | EC50 [4, 10] [nM] | EC50 [5, 11] [nM] | Ki ([6]; Table 1) [nM] | Ki ([6]; Table 3) [nM] | Ki (Fold change) GT1a D168A NS3/4A Protease [7] | Ki ([8]; Table 1) [nM] | Ki ([8]; Table 3) [nM] | EC50 [1, 12] [nM] | EC50 [2, 13] [nM] | EC50 [2, 14] [nM] | Replicon EC50 (Fold change) A156T [2] | EC50 [3, 15] [nM] | Replicon EC50 (Fold change) D168A [3] | EC50 [4, 16] [nM] | Replicon EC50 (Fold change) R155K [4] | EC50 [5, 17] [nM] | Replicon EC50 (Fold change) D168V [5] | also measured |
| --- | --- | --- | --- | --- | --- | --- | --- | --- | --- | --- | --- | --- | --- | --- | --- | --- | --- | --- | --- | --- |
| C=C[C@@H]1C[C@]1(NC(=O)[C@@H]1C[C@@H]2CN1C(=O)[C@H](C(C)(C)C)NC(=O)O[C@@H]1C[C@H]1CCCCCc1nc3ccc(OC)cc3nc1O2)C(=O)NS(=O)(=O)C1CC1 [Compound 1, grazoprevir, reference compound] | 0.14 | 9.69 | 1.89 | 5.41 | – | – | – | – | – | – | – | – | – | – | – | – | – | – | – | EC50 ([1]; Huh-7, Table 9): 0.12 nM; EC50 ([2]; Hepatitis C virus, Huh-7, read-out: Replicon EC50 (nM) A156T, Table 9): 200 nM; EC50 ([2]; read-out: Replicon EC50 (nM) A156T, Table 2, Huh7 cells, luciferase 96 h): 238 nM; EC50 ([3]; Huh-7, read-out: Replicon EC50 (nM) D168A, Table 9): 11 nM; EC50 ([4]; Huh-7, read-out: Replicon EC50 (nM) R155K, Table 9): 1.9 nM; EC50 ([5]; Huh-7, read-out: Replicon EC50 (nM) D168V, Table 9): 5.3 nM |
| COc1ccc2nc(C(C)C)c(O[C@@H]3C[C@H]4C(=O)N[C@]5(C(=O)NS(=O)(=O)C6CC6)C[C@H]5/C=C\CCCCC[C@H](NC(=O)OC(C)(C)C)C(=O)N4C3)nc2c1 [Compound 18e] | 1.43 | 15.3 | 5.02 | 23.7 | 239 | 239 ± 20 | (56) fold | 4.27 | 4.27 | 1.43 | 25.7 | 25.7 | (18) fold | 15.3 | (11) fold | 5.02 | (4) fold | 23.7 | (17) fold | – |
| COc1ccc2nc(C(C)C)c(O[C@@H]3C[C@H]4C(=O)N[C@]5(C(=O)NS(=O)(=O)C6CC6)C[C@H]5/C=C\CCCCC[C@H](NC(=O)OC5CCCC5)C(=O)N4C3)nc2c1 [Compound 22e, Cyclopentyl ((2R,6S,13aS,14aR,16aS,Z)-14a-((cyclopropylsulfonyl)carbamoyl)-2-((3-isopropyl-7-methoxyquinoxalin-2-yl)oxy)-5,16-dioxo-1,2,3,5,6,7,8,9,10,11,13a,14,14a,15,16,16a-hexadecahydrocyclopropa[e]pyrrolo[1,2-a][1,4]diazacyclopentadecin-6-yl)carbamate] | 0.48 | 7.96 | 7.63 | 30.1 | 161 | 161 ± 11 | (112) fold | 1.44 | 1.44 | 0.48 | 32.1 | 32.1 | (67) fold | 7.96 | (17) fold | 7.63 | (16) fold | 30.1 | (63) fold | – |
| O=C(N[C@H]1CCCCC/C=C\[C@@H]2C[C@@]2(C(=O)NS(=O)(=O)C2CC2)NC(=O)[C@@H]2C[C@@H](Oc3nc4ccccc4nc3-c3cccs3)CN2C1=O)OC1CCCC1 [Compound 22f, Cyclopentyl ((2R,6S,13aS,14aR,16aS,Z)-14a-((cyclopropylsulfonyl)carbamoyl)-5,16-dioxo-2-((3-(thiophen-2-yl)quinoxalin-2-yl)oxy)-1,2,3,5,6,7,8,9,10,11,13a,14,14a,15,16,16a-hexadecahydrocyclopropa[e]pyrrolo[1,2-a][1,4]diazacyclopentadecin-6-yl)carbamate] | 0.4 | 42.2 | 19.2 | 70 | 900 | 900 ± 81 | (566) fold | 1.59 | 1.59 | 0.4 | 183 | 183 | (458) fold | 42.2 | (106) fold | 19.2 | (48) fold | 70 | (175) fold | – |
| CCc1nc2ccccc2nc1O[C@@H]1C[C@H]2C(=O)N[C@]3(C(=O)NS(=O)(=O)C4CC4)C[C@H]3/C=C\CCCCC[C@H](NC(=O)OC3CCCC3)C(=O)N2C1 [Compound 22g, Cyclopentyl ((2R,6S,13aS,14aR,16aS,Z)-14a-((cyclopropylsulfonyl)carbamoyl)-2-((3-ethylquinoxalin-2-yl)oxy)-5,16-dioxo-1,2,3,5,6,7,8,9,10,11,13a,14,14a,15,16,16a-hexadecahydrocyclopropa[e]pyrrolo[1,2-a][1,4]diazacyclopentadecin-6-yl)carbamate] | 0.24 | 7.5 | 4.28 | 19.3 | 107 | 107 ± 7 | (54) fold | 1.99 | 1.99 | 0.24 | 24.6 | 24.6 | (103) fold | 7.5 | (31) fold | 4.28 | (18) fold | 19.3 | (80) fold | – |

Reference: patent publication US11472778B2, “Hepatitis C virus NS3/4A protease inhibitors” (priority 2017, dated 2022)
